Experiment: Kinase Assay: In vitro kinase assays were carried out by using recombinant murine c-abl containing SH3, SH2 and kinase domains (residues 46-531) and full length immunoprecipitated Bcr-abl. Recombinant abl was expressed in Sf9 insect cells and purified as described above. Bcr-abl immune complexes were obtained with Ab-3 anti-abl monoclonal antibody (Oncogene Science) from Ba/F3.p210 lysates as previously described. 1 μg of recombinant abl or immunoprecipitated Bcr-abl (from 3×10^6 cells) were incubated with various concentrations of test compound (0.1, 1 and 10 M) in kinase buffer (50 mM Tris-HCl pH 7.5, 10 mM MgCl2, […], 1 mM DTT, 0.015% Brij 35), 100 μM ATP and 1 μCi [γ-32P]-ATP for 30 min at 30° C. (Calbiochem buffer and protocol). The reaction was stopped by addition of Laemmli buffer and the proteins were resolved by SDS-PAGE in a 4-20% gel. The phosphoproteins were visualized by autoradiography and the autophosphorylation quantitated using a phosphoimager (STORM, Molecular Devices).

| SMILES | IC50 [µM] |
| --- | --- |
| COc1cc(-c2cc(Nc3ccc(OC(F)(F)F)cc3)ncn2)co1 | 0.94 |
| O=C(NCCN1CCOCC1)c1cc2c(Nc3ccc(OC(F)(F)F)cc3)ncnc2s1 | > 10 |
| O=C(NC(=O)c1cc2c(Nc3ccc(OC(F)(F)F)cc3)ncnc2s1)c1cccc(C(F)(F)F)c1 | 1.44 |
